Experimental data as given in patent publication US12655116B2, “Substituted isophthalic acid diamides” (Bayer Aktiengesellschaft, priority 2020, dated 2026).

Columns and labels:
ABUTH [1] = experiment: Pre-emergence herbicidal action against ABUTH; type: in vivo, Abutilon theophrasti; conditions: for Pre-emergence action against ABUTH (herbicidal activity): 80 g/ha, scored visually after 3 weeks vs untreated controls (100% = plants have died, 0% = like control plants); for Pre-emergence action against ABUTH (herbicidal activity in percent): dosage 20 g/ha, scored visually after 3 weeks vs untreated controls, 100% = plants have died, 0% = like control plants
Outline: (§1)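 Pre-emergence soil-surface spray of formulated compound (WP or EC; 600 to 800 l/ha; 0.2% wetting agent) over seeds sown in sandy loam. After 3 weeks under greenhouse conditions, damage is estimated visually in percent against untreated plants.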

ALOMY = experiment: Pre-emergence herbicidal action against ALOMY; type: in vivo, Alopecurus myosuroides; conditions: 80 g/ha, pre-emergence, scored visually after 3 weeks vs untreated controls (100% = plants have died, 0% = like control plants)
Outline: as §1

AMARE [2] = experiment: Pre-emergence herbicidal action against AMARE; type: in vivo, Amaranthus retroflexus
Outline: as §1

ECHCG [3] = experiment: Pre-emergence herbicidal action against ECHCG; type: in vivo, Echinochloa crus-galli; conditions: 80 g/ha
Outline: as §1

MATIN [4] = experiment: Pre-emergence herbicidal action against MATIN; type: in vivo, Matricaria inodora
Outline: as §1

PHBPU [5] = experiment: Pre-emergence herbicidal action against PHBPU; type: in vivo, Pharbitis purpurea; conditions: dosage 80 g/ha
Outline: as §1

SETVI [6] = experiment: Pre-emergence herbicidal action against SETVI; type: in vivo, Setaria viridis
Outline: as §1

VERPE [7] = experiment: Pre-emergence herbicidal action against VERPE; type: in vivo, Veronica persica
Outline: as §1

VIOTR [8] = experiment: Pre-emergence herbicidal action against VIOTR; type: in vivo, Viola tricolor
Outline: as §1

DIGSA [9] = experiment: Pre-emergence herbicidal action against DIGSA; type: in vivo, Digitaria sanguinalis
Outline: as §1

ABUTH [10] = experiment: Post-emergence herbicidal action against ABUTH; type: in vivo, Abutilon theophrasti; conditions: visual assessment about 3 weeks after treatment vs untreated controls
Outline: (§2)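 Spray, one-leaf stage: WP or EC compound in water, 600–800 l/ha, 0.2% wetting agent. Plants held about 3 weeks in the greenhouse, then visually rated in percent of kill compared with untreated controls.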

AMARE [11] = experiment: Post-emergence herbicidal action against AMARE; type: in vivo, Amaranthus retroflexus; conditions: 20 g/ha, visual assessment about 3 weeks after treatment, 100% = plants have died, 0% = like control plants
Outline: as §2

ECHCG [12] = experiment: Post-emergence herbicidal action against ECHCG; type: in vivo, Echinochloa crus-galli; conditions: dosage 20 g/ha
Outline: as §2

MATIN [13] = experiment: Post-emergence herbicidal action against MATIN; type: in vivo, Matricaria inodora
Outline: as §2

PHBPU [14] = experiment: Post-emergence herbicidal action against PHBPU; type: in vivo, Pharbitis purpurea
Outline: as §2

SETVI [15] = experiment: Post-emergence herbicidal action against SETVI; type: in vivo, Setaria viridis; conditions: dosage 20 g/ha
Outline: as §2

VERPE [16] = experiment: Post-emergence herbicidal action against VERPE; type: in vivo, Veronica persica
Outline: as §2

VIOTR [17] = experiment: Post-emergence herbicidal action against VIOTR; type: in vivo, Viola tricolor; conditions: 20 g/ha
Outline: as §2

DIGSA [18] = experiment: Post-emergence herbicidal action against DIGSA; type: in vivo, Digitaria sanguinalis; conditions: for Post-emergence action against DIGSA in %: 5 g/ha; for Post-emergence action against DIGSA: 20 g/ha
Outline: as §2

[19] = 20 g/ha, scored visually after 3 weeks vs untreated controls, 100% = plants have died, 0% = like control plants
[20] = 80 g/ha, scored visually after 3 weeks vs untreated controls (100% = plants have died, 0% = like control plants)

Row | Compound | Pre-emergence action against ABUTH (herbicidal activity) (ABUTH [1]) [%] | Pre-emergence action against ABUTH (herbicidal activity in percent) (ABUTH [1]) [%] | Pre-emergence action against AMARE in % (AMARE [2]; [19]) [%] | Pre-emergence action against AMARE in % (AMARE [2]; [20]) [%] | Pre-emergence action against ECHCG in % (ECHCG [3]) [%] | Pre-emergence action against MATIN in % (MATIN [4]; dosage 20 g/ha) [%] | Pre-emergence action against MATIN in % (MATIN [4]; dosage 80 g/ha) [%] | Pre-emergence action against PHBPU in % (PHBPU [5]) [%] | Pre-emergence action against SETVI in % (SETVI [6]; dosage 80 g/ha) [%] | Pre-emergence action against VERPE in % (VERPE [7]; dosage 80 g/ha) [%] | Pre-emergence action against VIOTR in % (VIOTR [8]; dosage 20 g/ha) [%] | Pre-emergence action against VIOTR in % (VIOTR [8]; dosage 80 g/ha) [%] | Pre-emergence action against DIGSA in % (DIGSA [9]; dosage 20 g/ha) [%] | Pre-emergence action against DIGSA in % (DIGSA [9]; dosage 80 g/ha) [%] | Post-emergence action at 20 g/ha against AMARE in % (AMARE [11]) [%] | Post-emergence action against ECHCG in % (ECHCG [12]) [%] | Post-emergence action against MATIN in % (MATIN [13]; dosage 20 g/ha) [%] | Post-emergence action against PHBPU in % (PHBPU [14]; dosage 20 g/ha) [%] | Post-emergence action against VERPE in % (VERPE [16]; 20 g/ha) [%] | Post-emergence action against VIOTR in % (VIOTR [17]) [%] | also measured
1 | CCn1nnnc1NC(=O)c1ccc(C(F)(F)F)c(C(=O)NC)c1C1CC1 [Example 2-286] | 100 | 100 | 100 | 100 | 90 | 100 | 100 | 90 | 100 | 100 | 90 | 100 | 100 | 100 | 100 | 100 | 90 | 90 | 80 | 80 | Pre-emergence action against ALOMY (herbicidal activity) (ALOMY): 80%; Pre-emergence action against SETVI in % (SETVI [6]; dosage 20 g/ha): 80%; Pre-emergence action against VERPE in % (VERPE [7]; dosage 20 g/ha): 80%; Post-emergence action against ABUTH in % (ABUTH [10]; dosage 5 g/ha): 90%; Post-emergence action against ABUTH in % (ABUTH [10]; dosage 20 g/ha): 90%; Post-emergence action against MATIN in % (MATIN [13]; dosage 5 g/ha): 90%; Post-emergence action against PHBPU in % (PHBPU [14]; dosage 5 g/ha): 90%; Post-emergence action against SETVI in % (SETVI [15]): 80%; Post-emergence action against VERPE in % (VERPE [16]; 5 g/ha): 80%; Post-emergence action against DIGSA in % (DIGSA [18]): 90%; Post-emergence action against DIGSA (DIGSA [18]): 90%
2 | CCn1nnnc1NC(=O)c1ccc(C(F)F)c(C(=O)NC(C)C2CC2)c1Br (centres unmarked) [Example 2-340] | 100 | 100 | 100 | 100 | 100 | 100 | 100 | 80 | 100 | 100 | 100 | 100 | 100 | 100 | 100 | 90 | 80 | 80 | 90 | 80 | Post-emergence action against DIGSA in % (DIGSA [18]): 80%; Post-emergence action against DIGSA (DIGSA [18]): 90%
